Experimental data as given in PubChem BioAssay AID1996.
Converted amounts (≈) assume the structure as drawn.

Settings: buffer; pH 7.4; 200.0 µM

Row | SMILES | solubility kinetic
1 | Cc1ccc(S(=O)(=O)c2ccc([N+](=O)[O-])cn2)cc1 | 21 µg/mL (≈ 75.5 µM)
2 | CC(C)[C@H](NC(=O)c1ccccc1F)C(=O)NC1CCCCCCC1 | 7.5 µg/mL (≈ 21.5 µM)
3 | O=C1c2ccsc2SCCN1Cc1cccc(F)c1 | 42.6 µg/mL (≈ 145 µM)
4 | CCOC(=O)c1c(C)[nH]c(C)c1C(=O)COC(=O)[C@@H](NC(=O)c1ccco1)C(C)C | > 62.8 µg/mL
5 | CC1CCCC(NC(=O)COC(=O)CCc2ccccc2)C1C (stereo not given) | 12.2 µg/mL (≈ 38.4 µM)
6 | Cc1ccc(N2CC(C(=O)Nc3cccnc3)CC2=O)cc1C (stereo not given) | 31.3 µg/mL (≈ 101 µM)
7 | Clc1ccccc1C1NCc2ccccc2-n2cccc21 (stereo not given) | 1.4 µg/mL (≈ 4.75 µM)
8 | COc1ccc(NC(=O)N2CCc3cc(OC)c(OC)cc3C2)cc1 | 9.1 µg/mL (≈ 26.6 µM)
9 | Cc1ccc(NC(=O)CCl)c(C)c1 | > 29.7 µg/mL
10 | COC(=O)c1cc(S(=O)(=O)N(C)C2CCCCC2)oc1C | 37.5 µg/mL (≈ 119 µM)
11 | Cc1nc(-c2ccc(S(=O)(=O)NCc3ccccn3)s2)cs1 | > 52.7 µg/mL
12 | CCCOc1ccc(N2C(=O)C3C4C=CC(CC4)C3C2=O)cc1 (stereo not given) | 4.6 µg/mL (≈ 14.8 µM)
13 | CN(C(=O)c1ccc(Cl)cc1)C1CCS(=O)(=O)C1 (stereo not given) | 41.2 µg/mL (≈ 143 µM)
14 | COc1ccc(N2C(=O)[C@@H]3C(c4cccnc4)=NO[C@@H]3C2=O)cc1 | 45 µg/mL (≈ 139 µM)
15 | COc1ccc(OC)c(C(O)C(C)N)c1.Cl (stereo not given) | > 37.2 µg/mL
16 | O=C(NCCCN1CCOCC1)c1ccc(Cl)cc1Cl | > 47.6 µg/mL
17 | CCN(CC)S(=O)(=O)c1ccc(Cl)c(NC2=NCCCCC2)c1 | 32.9 µg/mL (≈ 91.9 µM)
18 | O=C(NN1C(=O)NC2(CCCCC2)C1=O)c1cccs1 | > 44 µg/mL
19 | O=C(CSC(=S)N1CCOCC1)Nc1ncc2c(n1)CCCC2=O | 54.7 µg/mL (≈ 149 µM)
20 | O=C(CNC(=O)c1cccnc1)N/N=C/c1ccc(O)cc1O | > 47.1 µg/mL

Row | SMILES | solubility kinetic
21 | CCCCn1c(N)c(N(CCOC)C(=O)CN(C)CC(=O)Nc2ccc(Cl)c(Cl)c2)c(=O)[nH]c1=O | > 79.4 µg/mL
22 | NC(=O)C1CCN(Cc2nc(-c3cccs3)no2)CC1 | > 43.9 µg/mL
23 | c1ccc(CNc2nc(-c3cccnc3)cs2)cc1 | 22.4 µg/mL (≈ 83.8 µM)
24 | NC(=S)C(c1ccccc1)c1ncc(C(F)(F)F)cc1Cl (stereo not given) | 41.7 µg/mL (≈ 126 µM)
25 | CCC(=O)c1c[nH]c(C(=O)NCc2ccccc2OC)c1 | 2.8 µg/mL (≈ 9.78 µM)
26 | Brc1ccc(OCCN2CCOCC2)cc1 | 29 µg/mL (≈ 101 µM)
27 | CCCn1c(SCC(=O)Nc2ccc(Cl)cc2)n[nH]c1=O | > 49 µg/mL
28 | Cc1cccc(N2CC(C(=O)OCC(=O)Nc3sccc3C(N)=O)CC2=O)c1C (stereo not given) | 6.5 µg/mL (≈ 15.6 µM)
29 | Cc1cccc(C(=O)Oc2ccccc2C(=O)N2CCOCC2)c1 | > 48.8 µg/mL
30 | CCCC(=O)OCC(=O)NC1CCCc2ccccc21 (stereo not given) | > 41.3 µg/mL
31 | COc1cc(C(=O)N2CCN(c3ccccn3)CC2)cc(OC)c1OC | > 53.6 µg/mL
32 | CCCN(CC(=O)Nc1ccccc1OC)C(=O)c1nc2nc(C)ccn2n1 | > 57.4 µg/mL
33 | Oc1c(Cl)cc(Cl)cc1C1Nc2ccccc2-n2cccc21 (stereo not given) | < 0.4 µg/mL
34 | CSc1ncccc1C(=O)OCC(=O)Nc1ccc(N2CCOCC2)cc1 | 10.6 µg/mL (≈ 27.4 µM)
35 | CCn1c(CO)nc2c1c(=O)[nH]c(=O)n2Cc1ccccc1 | > 45 µg/mL
36 | Cl.O=C1CC[C@@]2(O)[C@H]3Cc4ccc(O)c5c4[C@@]2(CCN3CC2CC2)[C@H]1O5 | > 56.7 µg/mL
37 | NS(=O)(=O)c1cccc(NC(=O)CCC(=O)c2cccs2)c1 | > 50.8 µg/mL
38 | CC(C)[C@H](Nc1ncnc2c1oc1ccccc12)C(=O)O | > 42.8 µg/mL
39 | CCOC(=O)c1csc(NC(=O)c2ccc(C#N)cc2)n1 | 1 µg/mL (≈ 3.32 µM)
40 | Cc1nc(C(F)(F)F)ccc1C(=O)Nc1ccc2ccccc2n1 | 3.3 µg/mL (≈ 9.96 µM)

Row | SMILES | solubility kinetic
41 | CCc1cccc(NC(=O)CCCN2C(=O)NC(C)(C)C2=O)c1 | > 47.6 µg/mL
42 | Cc1ccc(-c2noc(CCC(=O)NC3CC3)n2)cc1 | > 40.7 µg/mL
43 | NC(=O)c1ccc[n+](CC(=O)NCc2ccc(Cl)cc2)c1.[Cl-] | > 51 µg/mL
44 | COC(=O)Cn1c(N2CCCC2)nc2c1c(=O)n(C)c(=O)n2C | > 48.2 µg/mL
45 | CC1CN(C(=O)/C=C/c2ccc(SC(F)F)cc2)CC(C)O1 (stereo not given) | 36.3 µg/mL (≈ 111 µM)
46 | Cc1ccc(OCc2ccccc2C)c([N+](=O)[O-])n1 | 18.4 µg/mL (≈ 71.2 µM)
47 | Cc1ccc(C(C)C)c(OCC(O)CNC2CCCC2)c1.Cl (stereo not given) | > 49.2 µg/mL
48 | Cc1nc(N2CCOCC2)[nH]c(=O)c1C(O)C(Cl)(Cl)Cl (stereo not given) | 47.1 µg/mL (≈ 137 µM)
49 | Cc1ccc(NC2CCCN(C(=O)c3cccs3)C2)cc1C (stereo not given) | 47.1 µg/mL (≈ 150 µM)
50 | COc1ccc(OC)c(/C=C/C(=O)Nc2ccc(OC)nc2)c1 | 4.7 µg/mL (≈ 15 µM)
51 | COC(=O)c1cccc2c1NC(=O)C2=O | > 30.8 µg/mL
52 | CCc1ccccc1NC(=O)NCc1ccc2c(c1)OCO2 | 0.7 µg/mL (≈ 2.35 µM)
53 | Cn1cccc1C1CCCN1CC(=O)Nc1ccc(F)c(F)c1F (stereo not given) | > 50.6 µg/mL
54 | CCCCOc1ccc(CON(C(C)=O)C(C)=O)cc1Cl | 2.6 µg/mL (≈ 8.29 µM)
55 | O=C(CSc1ccccc1C(=O)O)NCc1ccccc1 | 44 µg/mL (≈ 146 µM)
56 | Nc1c(N(CCO)C(=O)C2CCCC2)c(=O)[nH]c(=O)n1Cc1ccccc1 | > 55.9 µg/mL
57 | CC(=O)c1ccc(S(=O)(=O)Nc2ccc3c(c2)OCO3)cc1 | > 47.9 µg/mL
58 | CC(C)c1ccc(NC(=S)N2CCCC2)cc1 | > 37.3 µg/mL
59 | O=C(Cn1ncc2c([nH]c3ccccc32)c1=O)N1CCOCC1 | > 46.8 µg/mL
60 | COC(=O)/C(=C\C(=O)c1ccccc1)Nc1ccc(OC)cc1 | 7.6 µg/mL (≈ 24.4 µM)
